{"source": "patent US12324927B2", "about": "“Methods and systems for photodynamic therapy calculations” (THE TRUSTEES OF THE UNIVERSITY OF PENNSYLVANIA, priority 2018, dated 2025)", "test_system": "radiation-induced fibrosarcoma (RIF) tumors", "experiment": "Photofrin-mediated PDT of RIF tumors: explicit dosimetry and tumor regrowth (cure index)", "assay_type": "in vivo, mice", "settings": "for Photofrin post: in tumor after PDT; for Photofrin post / Photofrin pre / [ROS]rx, mea / [ROS]rxcal / CI (cure index, 1−k/kctr): per mouse; for Photofrin pre: in tumor before PDT, 5 mg/kg i.v., 24 h, 5 mg/kg; for [ROS]rx, mea / [ROS]rxcal: 3 mm; for [ROS]rx, mea: measured [^3O2](t); for [ROS]rxcal: model-calculated [^3O2]; for CI (cure index, 1−k/kctr): tumor growth up to 14 days", "method": "Radiation-induced fibrosarcomas (RIF) cells were cultured and injected in the right shoulder regions of 6-8 weeks old female C3H mice (NCI-Frederick, Frederick, MD). 30 μl were injected at a concentration of 1×10^7 cells/ml, as described previously.^8-11 Animals were under the care of the University of Pennsylvania Laboratory Animal Resources. All studies were approved by the University of Pennsylvania Institutional Animal Care and Use Committee. The fur of the treatment region was clipped prior to cell inoculation, and the treatment area was depilated with Nair (Church & Dwight Co., Inc., Ewing, NJ) at least 24 hours prior to measurements and treatment. Tumors were treated when they were 3˜5 mm in diameter. Mice were given a chlorophyll-free (alfalfa-free) rodent diet (Harlan laboratories Inc., Indianapolis, IN) at least 10 days prior to treatment to eliminate the fluorescence signal from chlorophyll-breakdown products, which have a similar range to the photosensitizer spectra obtained in this study. The photosensitizer fluorescence was used to determine the in vivo concentrations in this study, using methods described previously.^7-9\nTreatment delivery was done using an optical fiber with a microlens attachment coupled to a diode laser with the appropriate wavelength for each photosensitizer. A 630 nm laser (Biolitec, Inc., East Longmeadow, MA, USA) was used for Photofrin after a 18˜24 hours drug-light interval. The in-air fluence rate (ϕair) is defined as the calculated irradiance determined by the laser power divided by the treatment area (1 cm diameter spot size). The in-air fluence was calculated by multiplying the in-air fluence rate by the treatment time. RIF tumor-bearing mice with no photosensitizer and no light excitation were used as controls (n=5).\nPhotofrin (Pinnacle Biologics, Chicago, Illinois) at a dosage of 5 mg/kg was injected through the mouse tail vein as described previously.^12,13 At a 24-h drug-light interval, superficial irradiation of the tumor was performed with a 630-nm laser (Biolitec AG., A-1030, Vienna). A microlens fiber was coupled to the laser to irradiate the tumor uniformly. Animals were assigned to four light dose groups, and each group was comprised of 2 to 3 subgroups with different ϕ. There were a total of 5 treatment groups: 50 J/cm^2 at 150 mW/cm^2, 250 J/cm^2 at 75 mW/cm^2, 135 J/cm^2 at 75 mW/cm^2, 75 J/cm^2 at 75 mW/cm^2, and 100 J/cm^2 at 150 mW/cm^2. Tumor-bearing mice that received neither light irradiation nor Photofrin were used as controls.\nFollowing the drug-light interval of 18˜24 hours, measurements of light fluence rate, photosensitizer concentration and [O2] were performed. Photofrin fluorescence spectra was obtained using a custom-made multi-fiber contact probe before and after PDT.^14 The probe is connected to a 405 nm laser (Power Technology Inc., Little Rock, AR, USA) for the fluorescence excitation of Photofrin and a multichannel CCD spectrograph (InSpectrum, Princeton Instruments, Trenton, NJ, USA) for the collection of the spectra. The in vivo photosensitizer concentration was obtained by comparing the in vivo Photofrin spectra with those of phantoms with known photosensitizer concentrations. The attenuation of the fluorescence signal due to the light absorption and scattering by tissues was corrected by applying an empirical correction factor described elsewhere. The accuracy of in vivo measurements was validated by ex vivo measurements in separate mice.^15.16\nThe in vivo tissue oxygen partial pressure pO2 was measured during PDT treatment using a phosphorescence-based ^3O2 probe (OxyLite Pro, Oxford Optronix, Oxford, United Kingdom). A bare-fiber-type probe (NX-BF/O/E, Oxford Optronix, Oxford, United Kingdom) was placed inside the tumor at a 3 mm depth from the treatment surface. […]", "note": "“And” between values parts separate entries of the source, which are not always exact repeats. Identical values can stand only once."}
{"substance": "Photofrin", "values": [{"measurement": "Photofrin post", "setting": "75.00 mW/cm2 for 1500.00 s", "result": "2.80 µM and 3.70 µM and 3.01 µM"}, {"measurement": "Photofrin post", "setting": "75.00 mW/cm2 for 1800.00 s", "result": "4.90 µM and 3.35 µM and 3.00 µM and 3.50 µM"}, {"measurement": "Photofrin post", "setting": "75.00 mW/cm2 for 3333.00 s", "result": "3.02 µM and 2.44 µM and 2.48 µM and 2.20 µM"}, {"measurement": "Photofrin post", "setting": "150.00 mW/cm2 for 333.00 s", "result": "3.07 µM and 1.19 µM and 2.80 µM and 2.30 µM"}, {"measurement": "Photofrin post", "setting": "150.00 mW/cm2 for 666.00 s", "result": "2.50 µM and 3.54 µM and 4.88 µM and 3.49 µM"}, {"measurement": "Photofrin pre", "setting": "75.00 mW/cm2 for 1500.00 s", "result": "6.50 µM and 6.70 µM and 6.00 µM"}, {"measurement": "Photofrin pre", "setting": "75.00 mW/cm2 for 1800.00 s", "result": "6.90 µM and 6.80 µM and 5.20 µM and 5.67 µM"}, {"measurement": "Photofrin pre", "setting": "75.00 mW/cm2 for 3333.00 s", "result": "6.47 µM and 4.20 µM and 4.54 µM and 4.50 µM"}, {"measurement": "Photofrin pre", "setting": "150.00 mW/cm2 for 333.00 s", "result": "6.80 µM and 3.07 µM and 5.84 µM and 5.10 µM"}, {"measurement": "Photofrin pre", "setting": "150.00 mW/cm2 for 666.00 s", "result": "6.40 µM and 7.20 µM and 7.84 µM and 6.79 µM"}, {"measurement": "[ROS]rx, mea", "setting": "75.00 mW/cm2 for 1500.00 s", "result": "0.82 mM and 0.73 mM and 0.65 mM"}, {"measurement": "[ROS]rx, mea", "setting": "75.00 mW/cm2 for 1800.00 s", "result": "1.13 mM and 0.96 mM and 1.00 mM and 1.10 mM"}, {"measurement": "[ROS]rx, mea", "setting": "75.00 mW/cm2 for 3333.00 s", "result": "1.40 mM and 1.41 mM and 1.39 mM and 1.20 mM"}, {"measurement": "[ROS]rx, mea", "setting": "150.00 mW/cm2 for 333.00 s", "result": "0.27 mM (2×) and 0.21 mM and 0.38 mM"}, {"measurement": "[ROS]rx, mea", "setting": "150.00 mW/cm2 for 666.00 s", "result": "0.77 mM and 0.79 mM and 0.88 mM and 0.78 mM"}, {"measurement": "[ROS]rxcal", "setting": "75.00 mW/cm2 for 1500.00 s", "result": "0.89 mM and 0.93 mM and 0.87 mM"}, {"measurement": "[ROS]rxcal", "setting": "75.00 mW/cm2 for 1800.00 s", "result": "1.39 mM and 1.24 mM and 1.07 mM and 1.09 mM"}, {"measurement": "[ROS]rxcal", "setting": "75.00 mW/cm2 for 3333.00 s", "result": "2.33 mM and 1.73 mM and 1.89 mM and 1.87 mM"}, {"measurement": "[ROS]rxcal", "setting": "150.00 mW/cm2 for 333.00 s", "result": "0.29 mM and 0.235 mM and 0.39 mM and 0.32 mM"}, {"measurement": "[ROS]rxcal", "setting": "150.00 mW/cm2 for 666.00 s", "result": "0.69 mM and 0.81 mM (2×) and 0.8 mM"}, {"measurement": "CI (cure index, 1−k/kctr)", "setting": "75.00 mW/cm2 for 1500.00 s", "result": "0.20 and 0.22 and 0.13"}, {"measurement": "CI (cure index, 1−k/kctr)", "setting": "75.00 mW/cm2 for 1800.00 s", "result": "1.00 and 0.56 and 0.64 and 0.82"}, {"measurement": "CI (cure index, 1−k/kctr)", "setting": "75.00 mW/cm2 for 3333.00 s", "result": 1.00}, {"measurement": "CI (cure index, 1−k/kctr)", "setting": "150.00 mW/cm2 for 333.00 s", "result": "0.03 and 0.00 and 0.01 and 0.06"}, {"measurement": "CI (cure index, 1−k/kctr)", "setting": "150.00 mW/cm2 for 666.00 s", "result": "0.15 and 0.25 and 0.42 and 0.27"}, {"measurement": "PDT dose threshold", "setting": "this study", "result": 439, "unit": "mM J/cm^2"}]}
